Measurements taken from PubChem BioAssay (NCI).
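Interpolation was linear, between the two tested concentrations surrounding the appropriate level; five concentrations were tested over 48 hours in 96-well plates. Here, GI50 denotes the concentration required for 50% inhibition of growth. TGI is the concentration that stops growth completely.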

Key:
Experiment in all cases: NCI anticancer screen, dose series, 48 h
A498 renal = test system: A498 renal
UACC-257 melanoma = test system: UACC-257 melanoma
OVCAR-4 ovarian = test system: OVCAR-4 ovarian
PC-3 prostate = test system: PC-3 prostate
HCT-116 colon = test system: HCT-116 colon
MDA-MB-231 breast = test system: MDA-MB-231 breast
SF-295 CNS = test system: SF-295 CNS
NCI/ADR-RES ovarian = test system: NCI/ADR-RES ovarian
NCI-H460 lung = test system: NCI-H460 lung
SR leukemia = test system: SR leukemia
HOP-62 NSCLC = test system: HOP-62 NSCLC
K-562 leukemia = test system: K-562 leukemia
U251 CNS = test system: U251 CNS
SK-OV-3 ovarian = test system: SK-OV-3 ovarian
HT29 colon = test system: HT29 colon
HCC-2998 colon = test system: HCC-2998 colon
ACHN renal = test system: ACHN renal
RPMI-8226 leukemia = test system: RPMI-8226 leukemia
HOP-92 NSCLC = test system: HOP-92 NSCLC
SF-268 CNS = test system: SF-268 CNS
SNB-75 CNS = test system: SNB-75 CNS
BT-549 breast = test system: BT-549 breast
COLO 205 colon = test system: COLO 205 colon
SW-620 colon = test system: SW-620 colon
CCRF-CEM leukemia = test system: CCRF-CEM leukemia
MALME-3M melanoma = test system: MALME-3M melanoma
UACC-62 melanoma = test system: UACC-62 melanoma
MCF7 breast = test system: MCF7 breast
IGROV1 ovarian = test system: IGROV1 ovarian
SNB-19 CNS = test system: SNB-19 CNS
KM12 colon = test system: KM12 colon
OVCAR-3 ovarian = test system: OVCAR-3 ovarian
OVCAR-8 ovarian = test system: OVCAR-8 ovarian
UO-31 renal = test system: UO-31 renal
M14 melanoma = test system: M14 melanoma
CAKI-1 renal = test system: CAKI-1 renal
OVCAR-5 ovarian = test system: OVCAR-5 ovarian
786-0 renal = test system: 786-0 renal
SK-MEL-5 melanoma = test system: SK-MEL-5 melanoma
A549 NSCLC = test system: A549 NSCLC
NCI-H226 lung = test system: NCI-H226 lung
HL-60(TB) leukemia = test system: HL-60(TB) leukemia
HCT-15 colon = test system: HCT-15 colon
NCI-H522 lung = test system: NCI-H522 lung
SN12C renal = test system: SN12C renal
EKVX NSCLC = test system: EKVX NSCLC
RXF 393 renal = test system: RXF 393 renal
SK-MEL-28 melanoma = test system: SK-MEL-28 melanoma
MOLT-4 leukemia = test system: MOLT-4 leukemia
SK-MEL-2 melanoma = test system: SK-MEL-2 melanoma
LOX IMVI melanoma = test system: LOX IMVI melanoma
SF-539 CNS = test system: SF-539 CNS
NCI-H23 lung = test system: NCI-H23 lung
DU-145 prostate = test system: DU-145 prostate
T-47D breast = test system: T-47D breast
TK-10 renal = test system: TK-10 renal

In the case of `CC(=O)c1nc2ccccc2n1CC(=O)c1cccc(Cl)c1`, the GI50 (A498 renal) is reported as 6.52 µM, the TGI (A498 renal) is reported as 88.6 µM and the GI50 (UACC-257 melanoma) is reported as 1.69 µM. It also gave a TGI (UACC-257 melanoma) greater than 100 µM, a GI50 (OVCAR-4 ovarian) of 0.752 µM and a TGI (OVCAR-4 ovarian) greater than 100 µM. The GI50 (PC-3 prostate) was 1.12 µM, the TGI (PC-3 prostate) was greater than 100 µM and the GI50 (HCT-116 colon) was 0.401 µM. It also gave a TGI (HCT-116 colon) greater than 100 µM, a GI50 (MDA-MB-231 breast) of 1.07 µM and a TGI (MDA-MB-231 breast) greater than 100 µM. For the same compound, the GI50 (SF-295 CNS) was 1.27 µM, the TGI (SF-295 CNS) was greater than 23.2 µM and the GI50 (NCI/ADR-RES ovarian) was 0.231 µM. For the same compound, the GI50 (NCI-H460 lung) was 0.36 µM, the GI50 (SR leukemia) was 0.121 µM and the TGI (SR leukemia) was 1.48 µM. For the same compound, the GI50 (HOP-62 NSCLC) was 1.69 µM, the TGI (HOP-62 NSCLC) was greater than 56.5 µM and the GI50 (K-562 leukemia) was 0.113 µM. For the same compound, the TGI (K-562 leukemia) was greater than 44.1 µM, the GI50 (U251 CNS) was 0.534 µM and the TGI (U251 CNS) was greater than 100 µM. For the same compound, the GI50 (SK-OV-3 ovarian) was 1.27 µM, the TGI (SK-OV-3 ovarian) was greater than 100 µM and the GI50 (HT29 colon) was 11.6 µM. It also gave a TGI (HT29 colon) greater than 100 µM, a GI50 (HCC-2998 colon) of 1.5 µM and a GI50 (ACHN renal) of 1.08 µM. For the same compound, the TGI (ACHN renal) was greater than 100 µM, the GI50 (RPMI-8226 leukemia) was 0.255 µM and the TGI (RPMI-8226 leukemia) was 14.3 µM. For the same compound, the TGI (HOP-92 NSCLC) was greater than 86.2 µM, the GI50 (SF-268 CNS) was 1.12 µM and the TGI (SF-268 CNS) was greater than 71.7 µM. It also gave a GI50 (SNB-75 CNS) of 0.313 µM, a TGI (SNB-75 CNS) of 59.8 µM and a GI50 (BT-549 breast) of 1.12 µM. The TGI (BT-549 breast) was greater than 100 µM, the GI50 (COLO 205 colon) was 16.1 µM and the TGI (COLO 205 colon) was greater than 79.1 µM. The GI50 (SW-620 colon) was 0.278 µM, the TGI (SW-620 colon) was greater than 100 µM and the GI50 (CCRF-CEM leukemia) was 1.17 µM. The TGI (CCRF-CEM leukemia) was greater than 26.2 µM, the GI50 (MALME-3M melanoma) was 0.517 µM and the TGI (MALME-3M melanoma) was greater than 100 µM. The GI50 (UACC-62 melanoma) was 0.416 µM, the TGI (UACC-62 melanoma) was 7.29 µM and the GI50 (MCF7 breast) was 0.335 µM. It also gave a TGI (MCF7 breast) greater than 100 µM, a GI50 (IGROV1 ovarian) of 0.543 µM and a TGI (IGROV1 ovarian) greater than 100 µM. For the same compound, the GI50 (SNB-19 CNS) was 0.808 µM, the TGI (SNB-19 CNS) was greater than 100 µM and the GI50 (KM12 colon) was 0.779 µM. The TGI (KM12 colon) was greater than 43.4 µM, the GI50 (OVCAR-3 ovarian) was 0.239 µM and the TGI (OVCAR-3 ovarian) was greater than 100 µM. It also gave a GI50 (OVCAR-8 ovarian) of 0.873 µM, a TGI (OVCAR-8 ovarian) greater than 100 µM and a GI50 (UO-31 renal) of 1.27 µM. The TGI (UO-31 renal) was greater than 100 µM, the GI50 (M14 melanoma) was 0.262 µM and the TGI (M14 melanoma) was greater than 100 µM. It also gave a GI50 (CAKI-1 renal) of 2.78 µM, a TGI (CAKI-1 renal) greater than 20.1 µM and a GI50 (OVCAR-5 ovarian) of 3.42 µM. For the same compound, the TGI (OVCAR-5 ovarian) was greater than 71.4 µM, the GI50 (786-0 renal) was 0.886 µM and the TGI (786-0 renal) was greater than 41.4 µM. The GI50 (SK-MEL-5 melanoma) was 0.175 µM, the TGI (SK-MEL-5 melanoma) was 13.6 µM and the GI50 (A549 NSCLC) was 2.67 µM. It also gave a TGI (A549 NSCLC) greater than 100 µM, a GI50 (NCI-H226 lung) of 3.39 µM and a TGI (NCI-H226 lung) greater than 44.2 µM. It also gave a GI50 (HL-60(TB) leukemia) of 0.144 µM, a TGI (HL-60(TB) leukemia) of 0.61 µM and a GI50 (HCT-15 colon) of 0.246 µM. For the same compound, the TGI (HCT-15 colon) was greater than 100 µM, the GI50 (NCI-H522 lung) was 0.0846 µM and the TGI (NCI-H522 lung) was 0.719 µM. The GI50 (SN12C renal) was 0.838 µM, the TGI (SN12C renal) was greater than 100 µM and the GI50 (EKVX NSCLC) was 4.33 µM. For the same compound, the TGI (EKVX NSCLC) was greater than 100 µM, the GI50 (RXF 393 renal) was 0.264 µM and the TGI (RXF 393 renal) was 0.88 µM. The GI50 (SK-MEL-28 melanoma) was 0.437 µM, the TGI (SK-MEL-28 melanoma) was greater than 54.3 µM and the GI50 (MOLT-4 leukemia) was 0.897 µM. It also gave a TGI (MOLT-4 leukemia) of 26.7 µM, a GI50 (SK-MEL-2 melanoma) of 0.505 µM and a TGI (SK-MEL-2 melanoma) of 98 µM. The GI50 (LOX IMVI melanoma) was 0.59 µM, the TGI (LOX IMVI melanoma) was greater than 100 µM and the GI50 (SF-539 CNS) was 0.33 µM. It also gave a TGI (SF-539 CNS) of 2.25 µM, a GI50 (NCI-H23 lung) of 0.522 µM and a TGI (NCI-H23 lung) greater than 47.5 µM. For the same compound, the GI50 (DU-145 prostate) was 0.647 µM, the TGI (DU-145 prostate) was greater than 31.8 µM and the GI50 (T-47D breast) was 0.881 µM. For the same compound, the TGI (T-47D breast) was greater than 100 µM, the GI50 (TK-10 renal) was 3.22 µM and the TGI (TK-10 renal) was 99.7 µM.
